Test results from patent publication US12077503B2, “Substituted cyclic amides and their use as herbicides” (FMC CORPORATION, priority 2015, dated 2024).

Tests used:
Assay type in all cases: in vivo
Kochia (Kochia scoparia) [1] = assay: Test A preemergence; conditions: Bassia scoparia, pre-emergence, 240 h; for pest or weed control at 125 g/ha: 125 g ai/ha, Preemergence, visual injury rating after approximately 10 d, read-out: Kochia plant response rating (0 to 100 scale, 0 is no effect, 100 is complete control); for pest or weed control at 500 g/ha: 500 g ai/ha, preemergence, visual injury rating about 10 d after treatment, 0 to 100 scale (0 no effect, 100 complete control), read-out: Kochia plant response rating
Outline: (§1)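 Ratings of 0 (no effect) to 100 (complete control) come from visual comparison with untreated controls roughly 10 d after treatment. Test chemicals, formulated in a non-phytotoxic solvent mixture with surfactant, were applied either as a preemergence directed soil spray on seeded soil or postemergence to one- to two-leaf plants 2 to 10 cm tall.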

[2] = tested on: barnyardgrass (Echinochloa crus-galli); assay: Test A preemergence; conditions: Echinochloa crus-galli, pre-emergence, 240 h; for pest or weed control at 125 g/ha: 125 g ai/ha, Preemergence, visual injury rating after approximately 10 d, read-out: Barnyardgrass plant response rating (0 to 100 scale, 0 is no effect, 100 is complete control); for pest or weed control at 500 g/ha: 500 g ai/ha, preemergence, visual injury rating about 10 d after treatment, 0 to 100 scale (0 no effect, 100 complete control), read-out: Barnyardgrass plant response rating
Outline: as §1

[3] = tested on: giant foxtail (Setaria faberii); assay: Test A preemergence; conditions: Setaria faberi, pre-emergence, 240 h; for pest or weed control at 125 g/ha: 125 g ai/ha, Preemergence, visual injury rating after approximately 10 d, read-out: Foxtail, Giant plant response rating (0 to 100 scale, 0 is no effect, 100 is complete control); for pest or weed control at 500 g/ha: 500 g ai/ha, preemergence, visual injury rating about 10 d after treatment, 0 to 100 scale (0 no effect, 100 complete control), read-out: Foxtail, Giant plant response rating
Outline: as §1

[4] = tested on: pigweed (Amaranthus retroflexus); assay: Test A preemergence; conditions: Amaranthus retroflexus, pre-emergence, 240 h; for pest or weed control at 125 g/ha: 125 g ai/ha, Preemergence, visual injury rating after approximately 10 d, read-out: Pigweed plant response rating (0 to 100 scale, 0 is no effect, 100 is complete control); for pest or weed control at 500 g/ha: 500 g ai/ha, preemergence, visual injury rating about 10 d after treatment, 0 to 100 scale (0 no effect, 100 complete control), read-out: Pigweed plant response rating
[5] = tested on: ragweed (common ragweed, Ambrosia elatior); assay: Test A preemergence; conditions: Ambrosia artemisiifolia, pre-emergence, 240 h; for pest or weed control at 125 g/ha: 125 g ai/ha, Preemergence, visual injury rating after approximately 10 d, read-out: Ragweed plant response rating (0 to 100 scale, 0 is no effect, 100 is complete control); for pest or weed control at 500 g/ha: 500 g ai/ha, preemergence, visual injury rating about 10 d after treatment, 0 to 100 scale (0 no effect, 100 complete control), read-out: Ragweed plant response rating
Outline: as §1

[6] = tested on: ryegrass, Italian (Italian ryegrass, Lolium multiflorum); assay: Test A preemergence; conditions: Lolium multiflorum, pre-emergence, 240 h; for pest or weed control at 125 g/ha: 125 g ai/ha, Preemergence, visual injury rating after approximately 10 d, read-out: Ryegrass, Italian plant response rating (0 to 100 scale, 0 is no effect, 100 is complete control); for pest or weed control at 500 g/ha: 500 g ai/ha, preemergence, visual injury rating about 10 d after treatment, 0 to 100 scale (0 no effect, 100 complete control), read-out: Ryegrass, Italian plant response rating
Outline: as §1

[7] = tested on: Galium (catchweed bedstraw, Galium aparine); assay: Test A postemergence; conditions: Galium, post-emergence, 240 h, 125 g ai/ha, Postemergence; visual injury after approximately 10 d; 0 to 100 scale where 0 is no effect and 100 is complete control; read-out: Plant response rating, Galium
Outline: as §1

Kochia (Kochia scoparia) [8] = assay: Test A postemergence; conditions: Bassia scoparia, post-emergence, 240 h, 125 g ai/ha, Postemergence; visual injury after approximately 10 d; 0 to 100 scale where 0 is no effect and 100 is complete control; read-out: Plant response rating, Kochia
Outline: as §1

[9] = tested on: barnyardgrass (Echinochloa crus-galli); assay: Test A postemergence; conditions: Echinochloa crus-galli, post-emergence, 240 h, 125 g ai/ha, Postemergence; visual injury after approximately 10 d; 0 to 100 scale where 0 is no effect and 100 is complete control; read-out: Plant response rating, Barnyardgrass
Outline: as §1

[10] = tested on: blackgrass (Alopecurus myosuroides); assay: Test A postemergence; conditions: Alopecurus myosuroides, post-emergence, 240 h, 125 g ai/ha, Postemergence; visual injury after approximately 10 d; 0 to 100 scale where 0 is no effect and 100 is complete control; read-out: Plant response rating, Blackgrass
Outline: as §1

corn (Zea mays) = assay: Test A postemergence; conditions: Zea mays, post-emergence, 240 h, 125 g ai/ha, Postemergence; visual injury after approximately 10 d; 0 to 100 scale where 0 is no effect and 100 is complete control
Outline: as §1

[11] = tested on: giant foxtail (Setaria faberii); assay: Test A postemergence; conditions: Setaria faberi, post-emergence, 240 h, 125 g ai/ha, Postemergence; visual injury after approximately 10 d; 0 to 100 scale where 0 is no effect and 100 is complete control; read-out: Plant response rating, Foxtail, Giant
Outline: as §1

[12] = tested on: pigweed (Amaranthus retroflexus); assay: Test A postemergence; conditions: Amaranthus retroflexus, post-emergence, 240 h, 125 g ai/ha, Postemergence; visual injury after approximately 10 d; 0 to 100 scale where 0 is no effect and 100 is complete control; read-out: Plant response rating, Pigweed
Outline: as §1

[13] = tested on: ragweed (common ragweed, Ambrosia elatior); assay: Test A postemergence; conditions: Ambrosia artemisiifolia, post-emergence, 240 h, 125 g ai/ha, Postemergence; visual injury after approximately 10 d; 0 to 100 scale where 0 is no effect and 100 is complete control; read-out: Plant response rating, Ragweed
Outline: as §1

[14] = tested on: ryegrass, Italian (Italian ryegrass, Lolium multiflorum); assay: Test A postemergence; conditions: Lolium multiflorum, post-emergence, 240 h, 125 g ai/ha, Postemergence; visual injury after approximately 10 d; 0 to 100 scale where 0 is no effect and 100 is complete control; read-out: Plant response rating, Ryegrass, Italian
Outline: as §1

[15] = tested on: wheat (Triticum aestivum); assay: Test A postemergence; conditions: Triticum aestivum, post-emergence, 240 h, 125 g ai/ha, Postemergence; visual injury after approximately 10 d; 0 to 100 scale where 0 is no effect and 100 is complete control; read-out: Plant response rating, Wheat
Outline: as §1

[16] = tested on: barnyardgrass (Echinochloa crus-galli); assay: Test B flooded paddy test; conditions: Echinochloa crus-galli, Flood, 250 g ai/ha; scale of 0 to 100 where 0 is no effect and 100 is complete control; read-out: Barnyardgrass plant response rating
Outline: (§2)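 Rating scale 0–100 (visual, vs untreated controls) after a 13–15 d greenhouse period; application to the flood layer, 3 cm above soil and maintained; plants at 2-leaf stage when treated.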

[17] = tested on: ducksalad (Heteranthera limosa); assay: Test B flooded paddy test; conditions: Heteranthera limosa, Flood, 250 g ai/ha; scale of 0 to 100 where 0 is no effect and 100 is complete control; read-out: Ducksalad plant response rating
Outline: as §2

rice (Oryra sativa) = assay: Test B flooded paddy test; conditions: Oryza sativa, Flood, 250 g ai/ha; scale of 0 to 100 where 0 is no effect and 100 is complete control; read-out: Rice plant response rating
Outline: as §2

[18] = tested on: sedge, umbrella (small-flower umbrella sedge, Cyperus difformis); assay: Test B flooded paddy test; conditions: Cyperus difformis, Flood, 250 g ai/ha; scale of 0 to 100 where 0 is no effect and 100 is complete control; read-out: Sedge, Umbrella plant response rating
Outline: as §2

Structure (SMILES) | pest or weed control at 125 g/ha (Kochia (Kochia scoparia) [1]) [%] | pest or weed control at 500 g/ha (Kochia (Kochia scoparia) [1]) [%] | pest or weed control at 125 g/ha [2] [%] | pest or weed control at 500 g/ha [2] [%] | pest or weed control at 125 g/ha [3] [%] | pest or weed control at 500 g/ha [3] [%] | pest or weed control at 125 g/ha [4] [%] | pest or weed control at 500 g/ha [4] [%] | pest or weed control at 125 g/ha [5] [%] | pest or weed control at 500 g/ha [5] [%] | pest or weed control at 125 g/ha [6] [%] | pest or weed control at 500 g/ha [6] [%] | pest or weed control at 125 g/ha [7] [%] | pest or weed control at 125 g/ha (Kochia (Kochia scoparia) [8]) [%] | pest or weed control at 125 g/ha [9] [%] | pest or weed control at 125 g/ha [10] [%] | Corn plant response rating (crop injury, 0 = no effect, 100 = complete kill) at 125 g/ha (corn (Zea mays)) [%] | pest or weed control at 125 g/ha [11] [%] | pest or weed control at 125 g/ha [12] [%] | pest or weed control at 125 g/ha [13] [%] | other results
O=C1NC[C@H](c2csc(C(F)(F)F)c2)[C@H]1C(=O)Nc1cccc(F)c1F [Compound 957] | 30 | 80 | 70 | 100 | 20 | 70 | 20 | 20 | 0 | 30 | 0 | 40 | 40 | 20 | 80 | 20 | 0 | 0 | 0 | 0 | pest or weed control at 125 g/ha [14]: 20%; plant injury at 125 g/ha [15]: 0%; pest or weed control at 250 g/ha [16]: 30%; pest or weed control at 250 g/ha [17]: 100%; pest or weed control at 250 g/ha (rice (Oryra sativa)): 0%; pest or weed control at 250 g/ha [18]: 0%
O=C1NC[C@H](c2cc(C(F)(F)F)cs2)[C@H]1C(=O)Nc1ccccc1F [Compound 960] | 20 | 30 | 80 | 90 | 70 | 90 | 0 | 0 | 0 | 0 | 0 | 0 | 0 | 0 | 50 | 20 | 0 | 20 | 0 | 0 | pest or weed control at 125 g/ha [14]: 30%; plant injury at 125 g/ha [15]: 0%; pest or weed control at 250 g/ha [16]: 20%; pest or weed control at 250 g/ha [17]: 100%; pest or weed control at 250 g/ha (rice (Oryra sativa)): 0%; pest or weed control at 250 g/ha [18]: 65%
CCc1cc(CC)cc([C@H]2CNC(=O)[C@@H]2C(=O)Nc2ccccc2C(F)(F)F)c1 [Compound 969] | 0 | 0 | 50 | 80 | 90 | 90 | 0 | 0 | 0 | 0 | 40 | 30 | 20 | 0 | 50 | 0 | 50 | 50 | 0 | 0 | pest or weed control at 125 g/ha [14]: 20%; plant injury at 125 g/ha [15]: 30%; pest or weed control at 250 g/ha [16]: 0%; pest or weed control at 250 g/ha [17]: 0%; pest or weed control at 250 g/ha (rice (Oryra sativa)): 0%; pest or weed control at 250 g/ha [18]: 0%
